In ChEMBL document CHEMBL5724696, “Autophagy assay results for EUbOPEN Chemogenomics Library” (2024):

Assays:
Format in all cases: functional, Homo sapiens
U2OS [1] = assay: (§1) Here: values are normalized to the negative (DMSO; defined as 0% autophagy induction) and positive (250nM Torin1; mTOR inhibitor; defined as maximal inducer of autophagy = 100%) control compounds and represented as % of autophagy induction. […] The impact of autophagy induction on cells is complex and depends on the affected target. As such, the magnitude of a phenotype may not be equally mirrored in the %-value of autophagy induction and vice versa. The dynamics of the induction may indicate the mode of activation: e.g. activation via phosphorylation or a signaling cascade may occur fast, while activation via transcription factors may take considerably longer. […] Of note, treatment concentrations may be sub-optimal for specific compounds, leading to false negative annotations.; conditions: Culturing Media DMEM, 1 % Penicillin/Streptomycin, 10% Fetal bovin serum Add-On: No, Screening Media Control DMEM, Screening Media Samples DMEM
U2OS [2] = assay: as §1; conditions: Culturing Media DMEM, 1 % Penicillin/Streptomycin, 10% Fetal bovin serum Add-On: No, Screening Media Control DMEM, Screening Media Samples DMEM; remark: listed apart in the source
TERT-RPE1 = assay: as §1; conditions: Culturing Media DMEM/F12 (1:1), 1 % Penicillin/Streptomycin, 10% Fetal bovin serum Add-On: No, Screening Media Control DMEM/F12 (1:1), Screening Media Samples DMEM/F12 (1:1)
[3] = Compound Concentration 0.5 uM, Timepoint 12 hours
[4] = Compound Concentration 0.5 uM, Timepoint 24 hours
[5] = Compound Concentration 0.5 uM, Timepoint 36 hours
[6] = Compound Concentration 0.5 uM, Timepoint 60 hours
[7] = Compound Concentration 2 uM, Timepoint 12 hours
[8] = Compound Concentration 2 uM, Timepoint 24 hours
[9] = Compound Concentration 2 uM, Timepoint 36 hours
[10] = Compound Concentration 2 uM, Timepoint 60 hours
[11] = Compound Concentration 10 uM, Timepoint 12 hours
[12] = Compound Concentration 10 uM, Timepoint 24 hours
[13] = Compound Concentration 10 uM, Timepoint 36 hours
[14] = Compound Concentration 10 uM, Timepoint 60 hours
[15] = Compound Concentration 1 uM, Timepoint 12 hours
[16] = Compound Concentration 1 uM, Timepoint 24 hours
[17] = Compound Concentration 1 uM, Timepoint 36 hours
[18] = Compound Concentration 1 uM, Timepoint 60 hours

Cl.Cl.Cl.c1ccc(N2CCN(Cc3nc4ccccc4[nH]3)CC2)nc1
autophagy induction (U2OS [1]; [3]): -5.698%
autophagy induction (U2OS [1]; [4]): -1.19%
autophagy induction (U2OS [1]; [5]): -1.541%
autophagy induction (U2OS [1]; [6]): -2680.35%
autophagy induction (U2OS [1]; [7]): -2.768%
autophagy induction (U2OS [1]; [8]): -5.039%
autophagy induction (U2OS [1]; [9]): -4.313%
autophagy induction (U2OS [1]; [10]): -2193.41%
autophagy induction (U2OS [1]; [11]): 1.805%
autophagy induction (U2OS [1]; [12]): -0.2364%
autophagy induction (U2OS [1]; [13]): -2.475%
autophagy induction (U2OS [1]; [14]): 114.324%
autophagy induction (U2OS [2]; [3]): 6.453%
autophagy induction (U2OS [2]; [4]): 3.88%
autophagy induction (U2OS [2]; [5]): 1.316%
autophagy induction (U2OS [2]; [6]): -5.738%
autophagy induction (U2OS [2]; [7]): 16.1665%
autophagy induction (U2OS [2]; [8]): 12.3628%
autophagy induction (U2OS [2]; [9]): 4.3069%
autophagy induction (U2OS [2]; [10]): -1.986%
autophagy induction (U2OS [2]; [11]): 1.702%
autophagy induction (U2OS [2]; [12]): -2.316%
autophagy induction (U2OS [2]; [13]): -1.149%
autophagy induction (U2OS [2]; [14]): 1.595%

N[C@@H](Cc1cc(I)c(Oc2ccc(O)c(I)c2)c(I)c1)C(=O)O [LIOTHYRONINE]
autophagy induction (TERT-RPE1; [15]): 142.376%
autophagy induction (TERT-RPE1; [16]): -11.4171%
autophagy induction (TERT-RPE1; [17]): 8.172%
autophagy induction (TERT-RPE1; [18]): -7.587%

CC[C@H](C)C(=O)O[C@H]1C[C@@H](C)C=C2C=C[C@H](C)[C@H](CC[C@@H]3C[C@@H](O)CC(=O)O3)[C@H]21 [LOVASTATIN]
autophagy induction (TERT-RPE1; [15]): -7.01%
autophagy induction (TERT-RPE1; [16]): 13.8584%
autophagy induction (TERT-RPE1; [17]): 45.8036%
autophagy induction (TERT-RPE1; [18]): 48.5439%

COc1ccc(OC(=O)N(CC(=O)O)Cc2ccc(OCCc3nc(-c4ccccc4)oc3C)cc2)cc1 [MURAGLITAZAR]
autophagy induction (TERT-RPE1; [15]): 84.7945%
autophagy induction (TERT-RPE1; [16]): -9.438%
autophagy induction (TERT-RPE1; [17]): 5.064%
autophagy induction (TERT-RPE1; [18]): -9.533%

O=C(O)c1ccc2cc(-c3ccc(O)c(C45CC6CC(CC(C6)C4)C5)c3)ccc2c1 [O-DEMETHYLATED ADAPALENE]
autophagy induction (TERT-RPE1; [15]): -7.665%
autophagy induction (TERT-RPE1; [16]): -12.7242%
autophagy induction (TERT-RPE1; [17]): -13.449%
autophagy induction (TERT-RPE1; [18]): 12.49%

CC[C@H]1[C@@H](O)[C@@H]2[C@H](CC[C@]3(C)[C@@H]([C@H](C)CCC(=O)O)CC[C@@H]23)[C@@]2(C)CC[C@@H](O)C[C@@H]12 [OBETICHOLIC ACID]
autophagy induction (TERT-RPE1; [15]): -8.507%
autophagy induction (TERT-RPE1; [16]): -7.962%
autophagy induction (TERT-RPE1; [17]): -3.9436%
autophagy induction (TERT-RPE1; [18]): 2.71%

O=c1[nH]c2ccccc2n1CCCN1CCN(C(c2ccccc2)c2ccccc2)CC1 [OXATOMIDE]
autophagy induction (TERT-RPE1; [11]): 12.1676%
autophagy induction (TERT-RPE1; [12]): 23.0166%
autophagy induction (TERT-RPE1; [13]): 23.6799%
autophagy induction (TERT-RPE1; [14]): -2.469%

CCC(C)N(C)C(=O)c1cc2ccccc2c(-c2ccccc2Cl)n1 (configuration not stated) [PK-11195]
autophagy induction (TERT-RPE1; [11]): -6.134%
autophagy induction (TERT-RPE1; [12]): 6.633%
autophagy induction (TERT-RPE1; [13]): 20.4099%
autophagy induction (TERT-RPE1; [14]): 30.5956%

CC(C)c1cc(Oc2c(Cl)cc(-n3nc(C#N)c(=O)[nH]c3=O)cc2Cl)n[nH]c1=O [RESMETIROM]
autophagy induction (TERT-RPE1; [15]): -11.5681%
autophagy induction (TERT-RPE1; [16]): 0.0003786%
autophagy induction (TERT-RPE1; [17]): 17.8213%
autophagy induction (TERT-RPE1; [18]): -19.2681%

CO[C@H]1/C=C/O[C@@]2(C)Oc3c(C)c(O)c4c(O)c(c(/C=N/N5CCN(C)CC5)c(O)c4c3C2=O)NC(=O)/C(C)=C\C=C\[C@H](C)[C@H](O)[C@@H](C)[C@@H](O)[C@@H](C)[C@H](OC(C)=O)[C@@H]1C [RIFAMPIN]
autophagy induction (TERT-RPE1; [15]): -6.53%
autophagy induction (TERT-RPE1; [16]): -7.862%
autophagy induction (TERT-RPE1; [17]): -4.147%
autophagy induction (TERT-RPE1; [18]): 5.829%

CN(CCOc1ccc(CC2SC(=O)NC2=O)cc1)c1ccccn1 (configuration not stated) [ROSIGLITAZONE]
autophagy induction (TERT-RPE1; [15]): -11.8893%
autophagy induction (TERT-RPE1; [16]): 0.9014%
autophagy induction (TERT-RPE1; [17]): 16.9691%
autophagy induction (TERT-RPE1; [18]): -11.1596%

C=C1/C(=C\C=C2/CCC[C@]3(C)[C@@H]([C@H](C)/C=C/C=C/C(O)(CC)CC)CC[C@@H]23)C[C@@H](O)C[C@@H]1O [SEOCALCITOL]
autophagy induction (TERT-RPE1; [15]): 1.435%
autophagy induction (TERT-RPE1; [16]): 3.014%
autophagy induction (TERT-RPE1; [17]): 6.115%
autophagy induction (TERT-RPE1; [18]): 9.3722%

Cc1cc(OCC(=O)O)cc(C)c1Cc1ccc(O)c(C(C)C)c1 [SOBETIROME]
autophagy induction (TERT-RPE1; [15]): -4.298%
autophagy induction (TERT-RPE1; [16]): -6.005%
autophagy induction (TERT-RPE1; [17]): 3.899%
autophagy induction (TERT-RPE1; [18]): 12.5403%

CCOC(=O)N1CCC(CN(Cc2ccc(Cl)cc2)Cc2ccc([N+](=O)[O-])s2)C1 (configuration not stated) [SR9009]
autophagy induction (TERT-RPE1; [15]): -2.29%
autophagy induction (TERT-RPE1; [16]): -4.7715%
autophagy induction (TERT-RPE1; [17]): -4.329%
autophagy induction (TERT-RPE1; [18]): -0.7127%

CCCCCNC(=O)N1CCC(CN(Cc2ccc(Cl)cc2)Cc2ccc([N+](=O)[O-])s2)C1 (configuration not stated) [SR9011]
autophagy induction (TERT-RPE1; [15]): -13.327%
autophagy induction (TERT-RPE1; [16]): -1.26%
autophagy induction (TERT-RPE1; [17]): 19.5212%
autophagy induction (TERT-RPE1; [18]): -21.0748%

O=S(=O)(c1ccccc1)N(CC(F)(F)F)c1ccc(C(O)(C(F)(F)F)C(F)(F)F)cc1 [T091317]
autophagy induction (TERT-RPE1; [15]): -11.1926%
autophagy induction (TERT-RPE1; [16]): -0.1715%
autophagy induction (TERT-RPE1; [17]): 8.77%
autophagy induction (TERT-RPE1; [18]): -29.9579%

CC1(C)CCC(C)(C)c2cc(NC(=O)c3ccc(C(=O)O)cc3)ccc21 [TAMIBAROTENE]
autophagy induction (TERT-RPE1; [15]): -36.8107%
autophagy induction (TERT-RPE1; [16]): -29.3713%
autophagy induction (TERT-RPE1; [17]): -7.633%
autophagy induction (TERT-RPE1; [18]): 34.9259%

CCOC(=O)c1ccc(C#Cc2ccc3c(c2)C(C)(C)CCS3)nc1 [TAZAROTENE]
autophagy induction (TERT-RPE1; [15]): -17.2771%
autophagy induction (TERT-RPE1; [16]): -27.562%
autophagy induction (TERT-RPE1; [17]): -16.2551%
autophagy induction (TERT-RPE1; [18]): 40.4791%

Cn1cc(C(=O)O)c2ccc(N3CCC(OCc4c(-c5c(Cl)cccc5Cl)noc4C4CC4)CC3)cc21 [TERN-101]
autophagy induction (TERT-RPE1; [15]): -2.759%
autophagy induction (TERT-RPE1; [16]): -6.198%
autophagy induction (TERT-RPE1; [17]): -6.322%
autophagy induction (TERT-RPE1; [18]): 3.921%

CCO[C@@H](Cc1ccc(OCCc2ccc(OS(C)(=O)=O)cc2)cc1)C(=O)O [TESAGLITAZAR]
autophagy induction (TERT-RPE1; [15]): -2.81%
autophagy induction (TERT-RPE1; [16]): -1.872%
autophagy induction (TERT-RPE1; [17]): 4.96%
autophagy induction (TERT-RPE1; [18]): 2.851%

O=C(O)Cc1cc(I)c(Oc2ccc(O)c(I)c2)c(I)c1 [TIRATRICOL]
autophagy induction (TERT-RPE1; [15]): -9.01%
autophagy induction (TERT-RPE1; [16]): -9.767%
autophagy induction (TERT-RPE1; [17]): -3.577%
autophagy induction (TERT-RPE1; [18]): 11.3725%

O=C(O)c1cc(F)c2nc(N3[C@@H]4CC[C@H]3C[C@@H](OCc3c(-c5ccccc5OC(F)(F)F)noc3C3CC3)C4)sc2c1 [TROPIFEXOR]
autophagy induction (TERT-RPE1; [15]): -16.0144%
autophagy induction (TERT-RPE1; [16]): -6.889%
autophagy induction (TERT-RPE1; [17]): 7.971%
autophagy induction (TERT-RPE1; [18]): -23.0565%

CC(C)OC(=O)C1=CN(C(=O)c2ccc(F)c(F)c2)CC(C)(C)c2c1[nH]c1ccccc21 [TUROFEXORATE ISOPROPYL]
autophagy induction (TERT-RPE1; [15]): -4.447%
autophagy induction (TERT-RPE1; [16]): -6.097%
autophagy induction (TERT-RPE1; [17]): -6.537%
autophagy induction (TERT-RPE1; [18]): 2.1006%
